Test results: the NIST ThermoML archive (doi:10.1021/je500917k)

Assay: xn = mol fraction of the nth substance listed
Settings: 100 kPa, Liquid; for speed of sound: Frequency=2 MHz

CCNCCO [2-(ethylamino)ethanol] + CCN1CCCC1=O
Settings | mass density [kg/m3] | speed of sound [m/s] | viscosity [mPa·s]
293.15 K, x2 = 0 | 917.79 | 1442.4 | 15.28
293.15 K, x2 = 0.111 | 925.54 | 1444.5 | 10.35
293.15 K, x2 = 0.2179 | 933.77 | 1448.8 | 7.447
293.15 K, x2 = 0.3242 | 941.8 | 1453.7 | 5.665
293.15 K, x2 = 0.4274 | 949.86 | 1459.7 | 4.571
293.15 K, x2 = 0.5359 | 958.36 | 1468 | 3.849
293.15 K, x2 = 0.6269 | 965.64 | 1473.3 | 3.126
293.15 K, x2 = 0.7225 | 973.71 | 1482 | 2.717
293.15 K, x2 = 0.8177 | 981.7 | 1491.1 | 2.458
293.15 K, x2 = 0.9095 | 989.6 | 1501 | 2.261
303.15 K, x2 = 0 | 909.82 | 1408.3 | 9.59
303.15 K, x2 = 0.111 | 917.42 | 1409.8 | 6.874
303.15 K, x2 = 0.2179 | 925.53 | 1413.7 | 5.212
303.15 K, x2 = 0.3242 | 933.46 | 1418.1 | 4.093
303.15 K, x2 = 0.4274 | 941.44 | 1423.5 | 3.257
303.15 K, x2 = 0.5359 | 949.89 | 1431.6 | 2.917
303.15 K, x2 = 0.6269 | 957.14 | 1436.5 | 2.458
303.15 K, x2 = 0.7225 | 965.19 | 1445 | 2.205
303.15 K, x2 = 0.8177 | 973.17 | 1453.7 | 2.013
303.15 K, x2 = 0.9095 | 981.06 | 1463.3 | 1.891
313.15 K, x2 = 0 | 901.79 | 1374.5 | 6.406
313.15 K, x2 = 0.111 | 909.24 | 1375.4 | 4.824
313.15 K, x2 = 0.2179 | 917.23 | 1378.8 | 3.79
313.15 K, x2 = 0.3242 | 925.07 | 1382.8 | 3.092
313.15 K, x2 = 0.4274 | 932.99 | 1387.9 | 2.609
313.15 K, x2 = 0.5359 | 941.38 | 1395.5 | 2.311
313.15 K, x2 = 0.6269 | 948.61 | 1400 | 1.979
313.15 K, x2 = 0.7225 | 956.65 | 1408.2 | 1.834
313.15 K, x2 = 0.8177 | 964.63 | 1416.7 | 1.684
313.15 K, x2 = 0.9095 | 972.5 | 1425.7 | 1.578
323.15 K, x2 = 0 | 893.68 | 1340.9 | 4.527
323.15 K, x2 = 0.111 | 900.98 | 1341.1 | 3.563
323.15 K, x2 = 0.2179 | 908.86 | 1344.1 | 2.873
323.15 K, x2 = 0.3242 | 916.63 | 1347.7 | 2.399
323.15 K, x2 = 0.4274 | 924.49 | 1352.5 | 2.053
323.15 K, x2 = 0.5359 | 932.84 | 1359.8 | 1.833
323.15 K, x2 = 0.6269 | 940.06 | 1364.2 | 1.664
323.15 K, x2 = 0.7225 | 948.09 | 1372 | 1.547
323.15 K, x2 = 0.8177 | 956.06 | 1380 | 1.435
323.15 K, x2 = 0.9095 | 963.93 | 1388.8 | 1.367
